Measured values as given in patent publication US20060189645A1, “Novel 6-phenylphenantridines” (Altana Pharma AG, priority 2003, published 2006).

System: PDE4
Test: Inhibition of PDE4 activity ([3H]cAMP hydrolysis, cytosol from human neutrophils)
Assay type: biochemical
Details: 0.5 μM cAMP, Motapizone 1 μM to suppress PDE3, 15 min at 37° C.
Experimental: Method for Measuring Inhibition of PDE4 Activity
PDE4 activity was determined as described by Thompson et al. (Adv Cycl Nucl Res 10: 69-92, 1979) with some modifications (Bauer and Schwabe, Naunyn-Schmiedeberg's Arch Pharmacol 311: 193-198, 1980). At a final assay volume of 200 μl (96 well microtiter plates) the assay mixture contained 20 mM Tris (pH 7.4), 5 mM MgCl2, 0.5 μM cAMP, [^3H]cAMP (about 30,000 cpm/assay), the test compound and an aliquot of cytosol from human neutrophils which mainly contains PDE4 activity as described by Schudt et al. (Naunyn-Schmiedeberg's Arch Pharmacol 344: 682-690, 1991); the PDE3-specific inhibitor Motapizone (1 μM) was included to suppress PDE3 activity originating from contaminating platelets. Serial dilutions of the compounds were prepared in DMSO and further diluted 1:100 (v/v) in the assays to obtain the desired final concentrations of the inhibitors at a DMSO concentration of 1% (v/v) which by itself only slightly affected PDE4 activity.
After preincubation for 5 min at 37° C., the reaction was started by the addition of substrate (cAMP) and the assays were incubated for further 15 min at 37° C. 50 μl of 0.2 N HCl was added to stop the reaction and the assays were left on ice for about 10 min. Following incubation with 25 μg 5′-nucleotidase (Crotalus atrox snake venom) for 10 min at 37° C., the assays were loaded on QAE Sephadex A-25 (1 ml bed volume). The columns were eluted with 2 ml of 30 mM ammonium formiate (pH 6.0) and the eluate was counted for radioactivity. Results were corrected for blank values (measured in the presence of denatured protein) which were below 5% of total radioactivity. […] The IC50-values for the compounds according to the invention for the inhibition of the PDE4 activity were determined from the concentration-inhibition curves by nonlinear-regression.

| Compound | Inhibition of the PDE4 activity, −log IC50 |
| --- | --- |
| COc1cc2c(cc1OC)[C@H]1CCCC[C@H]1N=C2c1ccc(C(C)=NNC(=O)c2cccnc2)cc1 [Compound 1, Nicotinic acid {1-[4-((4aR,10bR)-8,9-dimethoxy-1,2,3,4,4a,10b-hexahydro-phenanthridin-6-yl)-phenyl]-ethylidene}-hydrazide] | 8.62 |
| COc1cc2c(cc1OC)[C@H]1CCCC[C@H]1N=C2c1ccc(C(C)=NNC(=O)CC#N)cc1 [Compound 2, Cyano-acetic acid {1-[4-((4aR,10bR)-8,9-dimethoxy-1,2,3,4,4a,10b-hexahydro-phenanthridin-6-yl)-phenyl]-ethylidene}-hydrazide] | 8.61 |
| COc1cc2c(cc1OC)[C@H]1CCCC[C@H]1N=C2c1ccc(C(C)=NNC(=O)c2ccncc2)cc1 [Compound 3, Isonicotinic acid {1-[4-((4aR,10bR)-8,9-dimethoxy-1,2,3,4,4a,10b-hexahydro-phenanthridin-6-yl)-phenyl]-ethylidene}-hydrazide] | 8.71 |
| COc1cc2c(cc1OC)[C@H]1CCCC[C@H]1N=C2c1ccc(C(C)=NNC(C)=O)cc1 [Compound 4, Acetic acid {1-[4-((4aR,10bR)-8,9-dimethoxy-1,2,3,4,4a,10b-hexahydro-phenanthridin-6-yl)-phenyl]-ethylidene}-hydrazide] | 8.95 |
| COc1cc2c(cc1OC)[C@H]1CCCC[C@H]1N=C2c1ccc(C(C)=NNC(N)=O)cc1 [Compound 6, 1-[4-((4aR,10bR)-8,9-Dimethoxy-1,2,3,4,4a,10b-hexahydro-phenanthridin-6-yl)-phenyl]-ethanone-semicarbazone] | 8.64 |
| COc1cc2c(cc1OC)[C@H]1CCCC[C@H]1N=C2c1ccc(C(=NNC(N)=O)c2ccccc2)cc1 [Compound 7, 1-[4-((4aR,10bR)-8,9-Dimethoxy-1,2,3,4,4a,10b-hexahydro-phenanthridin-6-yl)-phenyl]-1-phenyl-methanone-semicarbazone] | 9.38 |
| COc1cc2c(cc1OC)C1CCCCC1N=C2c1cccc(C(C)=NNC(N)=O)c1 (centres unmarked) [Compound 37, 1-[3-((4aR10bR)-8,9-Dimethoxy-1,2,3,4,4a,10b-hexahydro-phenanthridin-6-yl)-phenyl]-ethanone-semicarbazone] | 8.75 |

System: not given
Test: not given
Details: not given

| Compound | melting point |
| --- | --- |
| COc1cc2c(cc1OC)[C@H]1CCCC[C@H]1N=C2c1ccc(C(C)=NNC(=O)c2cccnc2)cc1 [Compound 1, Nicotinic acid {1-[4-((4aR,10bR)-8,9-dimethoxy-1,2,3,4,4a,10b-hexahydro-phenanthridin-6-yl)-phenyl]-ethylidene}-hydrazide] | 162 °C |
